What was measured:
Candida albicans = assay: Growth test in microtiter plates, HA medium, 24 h, visual evaluation; type: cell-based; parameters: key: +: kein Wachstum im Vergleich zur Wachstumskontrolle; -: Wachstum wie Wachstumskontrolle
Mucor miehei = assay: as above; type: cell-based; parameters: key to Aktivität gegenüber M. miehei: +: kein Wachstum im Vergleich zur Wachstumskontrolle; -: Wachstum wie Wachstumskontrolle
Penicillium notatum = assay: as above; type: cell-based; parameters: key: +: kein Wachstum im Vergleich zur Wachstumskontrolle; -: Wachstum wie Wachstumskontrolle
Paecilomyces variotii = assay: as above; type: cell-based; parameters: key: +: kein Wachstum im Vergleich zur Wachstumskontrolle; -: Wachstum wie Wachstumskontrolle
M. grisea H2O = assay: microbe, parasite or virus in culture; type: cell-based, Magnaporthe grisea
Botrytis cinerea = assay: microbe, parasite or virus in culture; type: cell-based
P. infestans = assay: microbe, parasite or virus in culture; type: cell-based, Phytophthora infestans
M. grisea CM = assay: microbe, parasite or virus in culture; type: cell-based, Magnaporthe grisea
Lepidium sativum = assay: Crop plant growth test, seeds on filter discs, 4 days, visual evaluation; type: in vivo
Protocol: (§1) Testsubstanzen und Kontrollen werden auf Filterrondellen in Mikrotiterplatten (48 well) vorgelegt und das verwendete Lösungsmittel (DMSO) über Lyophilisation entfernt. Anschließend werden ca. 12 Samen pro Vertiefung (Setaria italical Lepidium sativum) zugeben, mit 200 µl sterilem Leitungswasser pro Vertiefung versetzt, mit einem Deckel versehen und in einer feuchten Kammer für 4 Tage im Pflanzenbrutschrank inkubiert (16h-Licht-8h-Dunkel-Rhythmus). Die Auswertung des Tests erfolgt optisch (+: mind. 75 % Wachstumshemmung im Vergleich zur Kontrolle, -: weniger als 75 % Wachstumshemmung im Vergleich zur Kontrolle.

Setaria italica = assay: as above; type: in vivo
Protocol: as §1

[1] = system: alle getesteten Pathogene; type: cell-based; details: 5-50 µg/mL
[2] = Pyricularia grisea, H2O, 24 h, read-out: Aktivität gegenüber M. grisea H2O
[3] = Phytophthora infestans, 24 h, read-out: Aktivität gegenüber P. infestans
[4] = Pyricularia grisea, 24 h, read-out: Aktivität gegenüber M. grisea CM

Row | Compound | Aktivität gegenüber C. albicans (Candida albicans; 10µg/mL) | Aktivität gegenüber C. albicans (Candida albicans; 50µg/mL) | Aktivität gegenüber M. miehei (Mucor miehei; 10µg/mL) | Aktivität gegenüber M. miehei (Mucor miehei; 50µg/mL) | Aktivität gegenüber P. notatum (Penicillium notatum; 10µg/mL) | Aktivität gegenüber P. notatum (Penicillium notatum; 50µg/mL) | Aktivität gegenüber P. variotii (Paecilomyces variotii; 10µg/mL) | Aktivität gegenüber P. variotii (Paecilomyces variotii; 50µg/mL) | Aktivität gegenüber Nutzpflanzen: L. sativum (Lepidium sativum; 10µg/R) | Aktivität gegenüber Nutzpflanzen: L. sativum (Lepidium sativum; 20µg/R) | Aktivität gegenüber Nutzpflanzen: L. sativum (Lepidium sativum; 50µg/R) | Aktivität gegenüber Nutzpflanzen: S. italica (Setaria italica; 10µg/R) | Aktivität gegenüber Nutzpflanzen: S. italica (Setaria italica; 20µg/R) | Aktivität gegenüber Nutzpflanzen: S. italica (Setaria italica; 50µg/R) | Aktivität gegenüber M. grisea H2O (M. grisea H2O; 5µg/mL) | Aktivität gegenüber M. grisea H2O (M. grisea H2O; 10µg/mL) | Aktivität gegenüber M. grisea H2O (M. grisea H2O; 25µg/mL) | Aktivität gegenüber M. grisea H2O (M. grisea H2O; 50µg/mL) | Aktivität gegenüber B. cinerea (Botrytis cinerea; 5µg/mL) | Aktivität gegenüber B. cinerea (Botrytis cinerea; 10µg/mL) | also measured
1 | CC(C)(C)c1cc([Se]c2cc(C(C)(C)C)cc(C(C)(C)C)c2O)c(O)c(C(C)(C)C)c1 [Verbindung 14, Bis(3,5-di-tert-butyl-2-hydroxyphenyl)selen] | - | - | - | - | - | - | - | - | - (weniger als 75 % Wachstumshemmung im Vergleich zur Kontrolle) | - (weniger als 75 % Wachstumshemmung im Vergleich zur Kontrolle) | - (weniger als 75 % Wachstumshemmung im Vergleich zur Kontrolle) | - (weniger als 75 % Wachstumshemmung im Vergleich zur Kontrolle) | - (weniger als 75 % Wachstumshemmung im Vergleich zur Kontrolle) | - (weniger als 75 % Wachstumshemmung im Vergleich zur Kontrolle) |  |  |  |  |  |  | inhibition of growth at 5 µg/mL (M. grisea H2O; [2]): 0 to 25%; inhibition of growth at 10 µg/mL (M. grisea H2O; [2]): 0 to 25%; inhibition of growth at 25 µg/mL (M. grisea H2O; [2]): 0 to 25%; inhibition of growth at 50 µg/mL (M. grisea H2O; [2]): 0 to 25%; inhibition of growth at 5 µg/mL (Botrytis cinerea; Botrytis cinerea, 24 h, 5µg/mL, read-out: Aktivität gegenüber B. cinerea): 0 to 25%; inhibition of growth at 10 µg/mL (Botrytis cinerea; Botrytis cinerea, 24 h, 10µg/mL, read-out: Aktivität gegenüber B. cinerea): 0 to 25%; inhibition of growth at 25 µg/mL (Botrytis cinerea; Botrytis cinerea, 24 h, 25µg/mL, read-out: Aktivität gegenüber B. cinerea): 0 to 25%; inhibition of growth at 50 µg/mL (Botrytis cinerea; Botrytis cinerea, 24 h, 50µg/mL, read-out: Aktivität gegenüber B. cinerea): 0 to 25%; inhibition of growth at 5 µg/mL (P. infestans; [3]): 0 to 25%; inhibition of growth at 10 µg/mL (P. infestans; [3]): 0 to 25%; inhibition of growth at 25 µg/mL (P. infestans; [3]): 0 to 25%; inhibition of growth at 50 µg/mL (P. infestans; [3]): 0 to 25%; inhibition of growth at 5 µg/mL (M. grisea CM; [4]): 0 to 25%; inhibition of growth at 10 µg/mL (M. grisea CM; [4]): 0 to 25%; inhibition of growth at 25 µg/mL (M. grisea CM; [4]): 0 to 25%; inhibition of growth at 50 µg/mL (M. grisea CM; [4]): 0 to 25%; Aktivität im Wachstums- und Keimungshemmungstest gegen die getesteten Pathogene [1]: weder im Wachstums- noch im Keimungshemmungstest im verwendeten Konzentrationsbereich eine entsprechende Aktivität
2 | COc1cc(C)c([Se]c2cc(OC)c(OC)cc2C)cc1OC [Verbindung 27, Bis(3,4-dimethoxy-6-methylphenyl)selen] | - | - | - | - | - | - | - | - | - (weniger als 75 % Wachstumshemmung im Vergleich zur Kontrolle) | - (weniger als 75 % Wachstumshemmung im Vergleich zur Kontrolle) | - (weniger als 75 % Wachstumshemmung im Vergleich zur Kontrolle) | + (mind. 75 % Wachstumshemmung im Vergleich zur Kontrolle) | - (weniger als 75 % Wachstumshemmung im Vergleich zur Kontrolle) | + (mind. 75 % Wachstumshemmung im Vergleich zur Kontrolle) | - (zwischen 0 und 25 % der Sporen nicht gekeimt) | - (zwischen 0 und 25 % der Sporen nicht gekeimt) | - (zwischen 0 und 25 % der Sporen nicht gekeimt) | + (zwischen 25 und 50 % der Sporen nicht gekeimt) | - (key: +++: mehr als 75 % der Sporen nicht gekeimt; ++: zwischen 50 und 75 % der Sporen nicht gekeimt; +: zwischen 25 und 50 % der Sporen nicht gekeimt; -: zwischen 0 und 25 % der Sporen nicht gekeimt) | - (key: +++: mehr als 75 % der Sporen nicht gekeimt; ++: zwischen 50 und 75 % der Sporen nicht gekeimt; +: zwischen 25 und 50 % der Sporen nicht gekeimt; -: zwischen 0 und 25 % der Sporen nicht gekeimt) | Aktivität gegenüber B. cinerea (Botrytis cinerea; 25µg/mL): - (key: +++: mehr als 75 % der Sporen nicht gekeimt; ++: zwischen 50 und 75 % der Sporen nicht gekeimt; +: zwischen 25 und 50 % der Sporen nicht gekeimt; -: zwischen 0 und 25 % der Sporen nicht gekeimt); Aktivität gegenüber B. cinerea (Botrytis cinerea; 50µg/mL): - (key: +++: mehr als 75 % der Sporen nicht gekeimt; ++: zwischen 50 und 75 % der Sporen nicht gekeimt; +: zwischen 25 und 50 % der Sporen nicht gekeimt; -: zwischen 0 und 25 % der Sporen nicht gekeimt); Aktivität gegenüber P. infestans (P. infestans; 5µg/mL): - (zwischen 0 und 25 % der Sporen nicht gekeimt); Aktivität gegenüber P. infestans (P. infestans; 10µg/mL): - (zwischen 0 und 25 % der Sporen nicht gekeimt); Aktivität gegenüber P. infestans (P. infestans; 25µg/mL): - (zwischen 0 und 25 % der Sporen nicht gekeimt); Aktivität gegenüber P. infestans (P. infestans; 50µg/mL): - (zwischen 0 und 25 % der Sporen nicht gekeimt); Wirksamkeit gegenüber P. infestans (P. infestans): keine Wirkung; Aktivität gegenüber M. grisea CM (M. grisea CM; 5µg/mL): - (zwischen 0 und 25 % der Sporen nicht gekeimt); Aktivität gegenüber M. grisea CM (M. grisea CM; 10µg/mL): - (zwischen 0 und 25 % der Sporen nicht gekeimt); Aktivität gegenüber M. grisea CM (M. grisea CM; 25µg/mL): + (zwischen 25 und 50 % der Sporen nicht gekeimt); Aktivität gegenüber M. grisea CM (M. grisea CM; 50µg/mL): + (zwischen 25 und 50 % der Sporen nicht gekeimt)
3 | COc1cc(C)c([Se]c2c(C)cc(OC)c(OC)c2OC)c(OC)c1OC [Verbindung 28, Bis(6-methyl-2,3,4-trimethoxyphenyl)selen] | - | - | - | - | - | - | - | - | - (weniger als 75 % Wachstumshemmung im Vergleich zur Kontrolle) | - (weniger als 75 % Wachstumshemmung im Vergleich zur Kontrolle) | - (weniger als 75 % Wachstumshemmung im Vergleich zur Kontrolle) | - (weniger als 75 % Wachstumshemmung im Vergleich zur Kontrolle) | - (weniger als 75 % Wachstumshemmung im Vergleich zur Kontrolle) | + (mind. 75 % Wachstumshemmung im Vergleich zur Kontrolle) | +++ (mehr als 75 % der Sporen nicht gekeimt) | +++ (mehr als 75 % der Sporen nicht gekeimt) | +++ (mehr als 75 % der Sporen nicht gekeimt) | +++ (mehr als 75 % der Sporen nicht gekeimt) | - (key: +++: mehr als 75 % der Sporen nicht gekeimt; ++: zwischen 50 und 75 % der Sporen nicht gekeimt; +: zwischen 25 und 50 % der Sporen nicht gekeimt; -: zwischen 0 und 25 % der Sporen nicht gekeimt) | - (key: +++: mehr als 75 % der Sporen nicht gekeimt; ++: zwischen 50 und 75 % der Sporen nicht gekeimt; +: zwischen 25 und 50 % der Sporen nicht gekeimt; -: zwischen 0 und 25 % der Sporen nicht gekeimt) | Aktivität gegenüber B. cinerea (Botrytis cinerea; 25µg/mL): - (key: +++: mehr als 75 % der Sporen nicht gekeimt; ++: zwischen 50 und 75 % der Sporen nicht gekeimt; +: zwischen 25 und 50 % der Sporen nicht gekeimt; -: zwischen 0 und 25 % der Sporen nicht gekeimt); Aktivität gegenüber B. cinerea (Botrytis cinerea; 50µg/mL): - (key: +++: mehr als 75 % der Sporen nicht gekeimt; ++: zwischen 50 und 75 % der Sporen nicht gekeimt; +: zwischen 25 und 50 % der Sporen nicht gekeimt; -: zwischen 0 und 25 % der Sporen nicht gekeimt); Aktivität gegenüber P. infestans (P. infestans; 5µg/mL): - (zwischen 0 und 25 % der Sporen nicht gekeimt); Aktivität gegenüber P. infestans (P. infestans; 10µg/mL): - (zwischen 0 und 25 % der Sporen nicht gekeimt); Aktivität gegenüber P. infestans (P. infestans; 25µg/mL): - (zwischen 0 und 25 % der Sporen nicht gekeimt); Aktivität gegenüber P. infestans (P. infestans; 50µg/mL): - (zwischen 0 und 25 % der Sporen nicht gekeimt); Wirksamkeit gegenüber P. infestans (P. infestans): keine Wirkung; Aktivität gegenüber M. grisea CM (M. grisea CM; 5µg/mL): +++ (mehr als 75 % der Sporen nicht gekeimt); Aktivität gegenüber M. grisea CM (M. grisea CM; 10µg/mL): +++ (mehr als 75 % der Sporen nicht gekeimt); Aktivität gegenüber M. grisea CM (M. grisea CM; 25µg/mL): +++ (mehr als 75 % der Sporen nicht gekeimt); Aktivität gegenüber M. grisea CM (M. grisea CM; 50µg/mL): +++ (mehr als 75 % der Sporen nicht gekeimt)
